Results taken from US20230295212A1 (ROME Therapeutics, Inc., priority 2022, published 2023).

What follows are molecules tested against T1, LINE1 reverse transcriptase (Homo sapiens, UniProt O00370) (assay: Stable artificial-intron Cis LINE1 reporter assay (HeLa Tet-On 3G, Firefly luciferase)). Conditions: HeLa L1 artificial-intron reporter cells, doxycycline 500 ng/mL, 72 h, class symbols.
T1 construct: expressed in transfected cells; host or cells: HeLa Tet-On 3G (Takara, cat no 631183)
Format: cell-based
Summary of the method: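 HeLa Tet-On 3G clone stably carrying a bi-directional doxycycline-inducible artificial-intron LINE1 reporter, plated at 8,000 cells/well onto serially diluted compound. Expression induced with 500 ng/mL doxycycline (final); Firefly luciferase luminescence (Dual-Glo) read 72 h after plating as LINE1 activity.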

T1 sequence (O00370 whole entry, looked up): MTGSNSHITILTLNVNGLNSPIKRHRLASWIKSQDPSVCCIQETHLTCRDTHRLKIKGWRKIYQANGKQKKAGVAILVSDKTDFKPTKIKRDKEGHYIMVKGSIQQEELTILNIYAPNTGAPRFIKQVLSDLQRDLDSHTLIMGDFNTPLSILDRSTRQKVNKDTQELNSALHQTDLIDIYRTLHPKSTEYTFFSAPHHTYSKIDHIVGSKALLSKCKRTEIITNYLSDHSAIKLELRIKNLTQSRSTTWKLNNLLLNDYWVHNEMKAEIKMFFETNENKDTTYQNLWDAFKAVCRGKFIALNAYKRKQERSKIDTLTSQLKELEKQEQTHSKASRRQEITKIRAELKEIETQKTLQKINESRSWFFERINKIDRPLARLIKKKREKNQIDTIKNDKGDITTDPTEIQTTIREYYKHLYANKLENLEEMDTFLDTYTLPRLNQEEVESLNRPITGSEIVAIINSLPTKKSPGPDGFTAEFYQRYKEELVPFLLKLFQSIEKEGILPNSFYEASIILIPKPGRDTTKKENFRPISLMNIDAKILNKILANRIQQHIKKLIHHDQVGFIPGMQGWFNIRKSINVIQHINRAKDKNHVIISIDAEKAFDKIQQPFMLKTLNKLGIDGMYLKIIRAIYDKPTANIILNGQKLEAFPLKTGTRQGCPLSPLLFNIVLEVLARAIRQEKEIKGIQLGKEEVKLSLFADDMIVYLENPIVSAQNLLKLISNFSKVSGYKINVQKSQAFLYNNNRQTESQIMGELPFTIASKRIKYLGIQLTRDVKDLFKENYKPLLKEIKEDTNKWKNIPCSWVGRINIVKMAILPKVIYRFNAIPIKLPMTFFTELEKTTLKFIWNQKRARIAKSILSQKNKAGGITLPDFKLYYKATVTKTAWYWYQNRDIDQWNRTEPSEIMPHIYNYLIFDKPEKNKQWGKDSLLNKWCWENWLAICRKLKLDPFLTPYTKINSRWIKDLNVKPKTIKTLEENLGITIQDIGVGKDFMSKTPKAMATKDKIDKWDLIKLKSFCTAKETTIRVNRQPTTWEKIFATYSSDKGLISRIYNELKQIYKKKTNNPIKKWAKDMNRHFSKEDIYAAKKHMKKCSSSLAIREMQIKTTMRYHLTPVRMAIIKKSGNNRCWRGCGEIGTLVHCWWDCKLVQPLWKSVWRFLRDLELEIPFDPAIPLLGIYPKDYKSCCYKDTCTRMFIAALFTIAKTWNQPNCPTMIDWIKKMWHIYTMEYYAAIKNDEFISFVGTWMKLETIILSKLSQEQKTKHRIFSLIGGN

SMILES | IC50 [µM]
Nc1nc(=O)n([C@@H]2O[C@](/C=C\F)(CO)[C@@H](O)[C@@H]2F)cc1F [Compound 123, 4-amino-5-fluoro-1-((2R,3S,4R,5R)-3-fluoro-5-((Z)-2-fluorovinyl)-4-hydroxy-5-(hydroxymethyl)tetrahydrofuran-2-yl)pyrimidin-2(1H)-one] | 0.05 to 0.1
Nc1nc(=O)n([C@@H]2O[C@@](CO)(CI)[C@@H](O)[C@@H]2F)cc1F [Compound 129, 4-amino-5-fluoro-1-((2R,3S,4R,5R)-3-fluoro-4-hydroxy-5-(hydroxymethyl)-5-(iodomethyl)tetrahydrofuran-2-yl)pyrimidin-2(1H)-one] | > 1
Nc1nc(=O)n([C@@H]2O[C@](/C=C/Cl)(CO)[C@@H](O)[C@@H]2F)cc1F [Compound 131, 4-amino-1-[(2R,3S,4R,5R)-5(E)-(2-chloroethenyl)-3-fluoro-4-hydroxy-5-(hydroxymethyl)oxolan-2-yl]-5-fluoropyrimidin-2-one] | 0.1 to 0.25
Nc1nc(=O)n([C@@H]2O[C@](/C=C\Cl)(CO)[C@@H](O)[C@@H]2F)cc1F [Compound 132, 4-amino-1-[(2R,3S,4R,5R)-5-(2-chloroethenyl)-3-fluoro-4-hydroxy-5(Z)-(hydroxymethyl)oxolan-2-yl]-5-fluoropyrimidin-2-one] | > 1
CSC[C@]1(CO)O[C@@H](n2cc(F)c(N)nc2=O)[C@@H](F)[C@@H]1O [Compound 135] | > 1
Nc1nc(=O)n([C@@H]2O[C@@](CO)(CCl)[C@@H](O)[C@@H]2Cl)cc1F [Compound 137, 4-amino-1-[(2R,3S,4R,5R)-3-chloro-5-(chloromethyl)-4-hydroxy-5-(hydroxymethyl)oxolan-2-yl]-5-fluoropyrimidin-2-one] | 0.25 to 1
[N-]=[N+]=N[C@]1(CO)O[C@@H](c2cc(I)c3c(N)ncnn23)C[C@@H]1O [Compound 161, (2R,3S,5R)-5-(4-amino-5-iodopyrrolo[2,1-f][1,2,4]triazin-7-yl)-2-azido-2-(hydroxymethyl)tetrahydrofuran-3-ol] | 0.05 to 0.1
C=C=C[C@]1(CO)O[C@@H](n2cnc3c(N)nc(F)nc32)C[C@@H]1O [Compound 164, (2R,3S,5R)-5-(6-amino-2-fluoropurin-9-yl)-2-(hydroxymethyl)-2-(propa-1,2-dien-1-yl)oxolan-3-ol] | 0.25 to 1
Nc1ccn([C@@H]2O[C@@](CO)(CBr)[C@@H](O)[C@@H]2F)c(=O)n1 [Compound 172] | ≤ 0.05
CC(C)C(=O)OC[C@@]1(CCl)O[C@@H](n2cc(F)c(N)nc2=O)[C@@H](F)[C@@H]1OC(=O)C(C)C [Compound 173, (2R,3R,4S,5R)-5-(4-amino-5-fluoro-2-oxopyrimidin-1(2H)-yl)-2-(chloromethyl)-4-fluoro-2-((isobutyryloxy)methyl)tetrahydrofuran-3-yl isobutyrate] | 0.25 to 1
[2H]C([2H])(Cl)[C@]1(CO)O[C@@H](n2cc(F)c(N)nc2=O)[C@@H](F)[C@@H]1O [Compound 175, 4-amino-1-((2R,3S,4R,5R)-5-(chloromethyl-d2)-3-fluoro-4-hydroxy-5-(hydroxymethyl)tetrahydrofuran-2-yl)-5-fluoropyrimidin-2(1H)-one] | ≤ 0.05
Cc1cn([C@@H]2O[C@@](CO)(CCl)[C@@H](O)[C@@H]2F)c(=O)[nH]c1=O [Compound 176] | > 1
Nc1nc(=O)n([C@@H]2OC(CO)(CO)[C@@H](O)[C@@H]2F)cc1F [Compound 177, 4-amino-5-fluoro-1-((2R,3S,4R)-3-fluoro-4-hydroxy-5,5-bis(hydroxymethyl)tetrahydrofuran-2-yl) pyrimidin-2(1H)-one] | > 1
Cc1cn([C@@H]2O[C@@](CO)(N=[N+]=[N-])[C@@H](O)[C@@H]2F)c(=O)[nH]c1=O [Compound 178, 1-((2R,3S,4R,5R)-5-azido-3-fluoro-4-hydroxy-5-(hydroxymethyl)tetrahydrofuran-2-yl)-5-methylpyrimidine-2,4(1H,3H)-dione] | 0.05 to 0.1
O=c1[nH]c(=O)n([C@@H]2O[C@@](CO)(CCO)[C@@H](O)[C@@H]2F)cc1F [Compound 179, 5-fluoro-1-((2R,3S,4R,5R)-3-fluoro-4-hydroxy-5-(2-hydroxyethyl)-5-(hydroxymethyl)tetrahydrofuran-2-yl) pyrimidine-2,4(1H,3H)-dione] | > 1
Cc1cn([C@H]2C[C@H](F)[C@@](C)(CO)O2)c(=O)[nH]c1=O [Compound 180, 1-((2R,4S,5R)-4-fluoro-5-(hydroxymethyl)-5-methyltetrahydrofuran-2-yl)-5-methylpyrimidine-2,4(1H,3H)-dione] | > 1

Same assay, conditions: HeLa L1 artificial-intron reporter cells, doxycycline 500 ng/mL, 72 h, numeric bounds

SMILES | IC50 [µM]
NC(=O)[C@]1(CO)O[C@@H](n2cc(F)c(N)nc2=O)[C@@H](F)[C@@H]1O [Compound 138, (2R,3R,4S,5R)-5-(4-amino-5-fluoro-2-oxopyrimidin-1-yl)-4-fluoro-3-hydroxy-2-(hydroxymethyl)oxolane-2-carboxamide] | > 30
NC[C@]1(CO)O[C@@H](n2cc(F)c(N)nc2=O)[C@@H](F)[C@@H]1O [Compound 139, 4-amino-1-[(2R,3S,4R,5R)-5-(aminomethyl)-3-fluoro-4-hydroxy-5-(hydroxymethyl)oxolan-2-yl]-5-fluoropyrimidin-2-one] | > 30
CC(O)[C@]1(CO)O[C@@H](n2cc(F)c(=O)[nH]c2=O)[C@@H](F)[C@@H]1O (stereo partly drawn) [Compound 162, 5-fluoro-1-[(2R,3S,4R,5S)-3-fluoro-4-hydroxy-5-(1-hydroxyethyl)-5-(hydroxymethyl)oxolan-2-yl]-3H-pyrimidine-2,4-dione] | > 30
O=c1[nH]c(=O)n([C@@H]2O[C@@](CO)(CCl)[C@@H](O)[C@@H]2F)cc1F [Compound 163, 1-[(2R,3S,4R,5R)-5-(chloromethyl)-3-fluoro-4-hydroxy-5-(hydroxymethyl)oxolan-2-yl]-5-fluoro-3H-pyrimidine-2,4-dione] | > 30
N#C[C@]1(CO)O[C@@H](n2cc(F)c(N)nc2=O)[C@@H](F)[C@@H]1O [Compound 166] | > 30
CC(C)C(=O)OC[C@@]1(CCl)O[C@@H](n2ncc(N)nc2=O)C[C@@H]1OC(=O)C(C)C [Compound 174, (2R,3S,5R)-5-(5-amino-3-oxo-1,2,4-triazin-2(3H)-yl)-2-(chloromethyl)-2-((isobutyryloxy)methyl)tetrahydrofuran-3-yl isobutyrate] | > 30
